Experimental data from the supplement of paper PMC10307832.

What was measured:
Test in all cases: relative viability (nuclei count vs DMSO), 5 days (fraction); higher = more cells survive
RO-3306 + AZD7762 = compound: C1=CC2=C(C=CC(=C2)C=C3C(=O)NC(=NCC4=CC=CS4)S3)N=C1 [RO-3306] + NC(=O)Nc1cc(-c2cccc(F)c2)sc1C(=O)N[C@H]1CCCNC1 [AZD7762] (partner 0.2 µM)
In short: (§1)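 Medians of duplicate plates are given as relative viability. That measure is the nuclei count in treated wells divided by the count in vehicle wells. Counts were taken on 4× images of lung cancer cell lines in 1536-well plates, 5 days after pin-tool dosing the day after seeding with one drug alone or a fixed anchor-drug dose plus five library-drug doses (not always all listed) in √10 steps.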

RO-3306 + Crizotinib = compound: C1=CC2=C(C=CC(=C2)C=C3C(=O)NC(=NCC4=CC=CS4)S3)N=C1 [RO-3306] + C[C@@H](Oc1cc(-c2cnn(C3CCNCC3)c2)cnc1N)c1c(Cl)ccc(F)c1Cl [Crizotinib] (partner 1 µM)
In short: as §1

[1] = compound: O=S(=O)(c1ccccc1)N(CC(F)(F)F)c1ccc(C(O)(C(F)(F)F)C(F)(F)F)cc1 + Cc1cc(Nc2cc(N3CCN(C)CC3)nc(Sc3ccc(NC(=O)C4CC4)cc3)n2)n[nH]1 [Tozasertib] (partner 0.1 µM)
In short: as §1

RO-3306 + Trametinib = compound: C1=CC2=C(C=CC(=C2)C=C3C(=O)NC(=NCC4=CC=CS4)S3)N=C1 [RO-3306] + CC(=O)Nc1cccc(-n2c(=O)n(C3CC3)c(=O)c3c(Nc4ccc(I)cc4F)n(C)c(=O)c(C)c32)c1 [Trametinib] (partner 0.02 µM)
In short: as §1

| Cell Line | relative viability (RO-3306 + AZD7762; first compound 0.01 µM) | relative viability (RO-3306 + AZD7762; first compound 0.03162 µM) | relative viability (RO-3306 + AZD7762; first compound 0.1 µM) | relative viability (RO-3306 + AZD7762; first compound 0.3162 µM) | relative viability (RO-3306 + AZD7762; first compound 1 µM) | relative viability (RO-3306 + Crizotinib; first compound 0.01 µM) | relative viability (RO-3306 + Crizotinib; first compound 0.03162 µM) | relative viability (RO-3306 + Crizotinib; first compound 0.1 µM) | relative viability (RO-3306 + Crizotinib; first compound 0.3162 µM) | relative viability (RO-3306 + Crizotinib; first compound 1 µM) | relative viability ([1]; first compound 0.8 µM) | relative viability ([1]; first compound 2.53 µM) | relative viability ([1]; first compound 8 µM) | relative viability (RO-3306 + Trametinib; first compound 0.01 µM) | relative viability (RO-3306 + Trametinib; first compound 0.03162 µM) | relative viability (RO-3306 + Trametinib; first compound 0.1 µM) | relative viability (RO-3306 + Trametinib; first compound 0.3162 µM) | relative viability (RO-3306 + Trametinib; first compound 1 µM) |
| --- | --- | --- | --- | --- | --- | --- | --- | --- | --- | --- | --- | --- | --- | --- | --- | --- | --- | --- |
| HCC-78 | 0.536 | 0.498 | 0.595 | 0.682 | 0.513 | 0.357 | 0.324 | 0.369 | 0.372 | 0.335 | 0.691 | 0.375 | 0.433 | 0.788 | 0.697 | 0.744 | 1.02 | 0.669 |
| 201T | 0.617 | 0.651 | 0.59 | 0.511 | 0.595 | 1.07 | 1.03 | 0.998 | 0.992 | 1.02 | 0.927 | 0.854 | 0.863 | 0.691 | 0.727 | 0.706 | 0.725 | 0.671 |
| ChaGo-K-1 | 1.08 | 0.694 | 0.84 | 0.945 | 0.769 | 1.2 | 1.03 | 1.14 | 0.858 | 0.818 | 0.225 | 0.209 | 0.235 | 0.954 | 0.829 | 0.859 | 0.856 | 0.559 |
| NCI-H1993 | 0.697 | 0.756 | 0.772 | 0.77 | 0.684 | – | 0.803 | 0.895 | 0.867 | 0.817 | 0.596 | 0.535 | 0.528 | 0.506 | 0.546 | 0.6 | 0.533 | 0.439 |
| EMC-BAC-2 | 1.1 | 1.04 | 1.14 | 1.14 | 1 | 0.768 | 0.723 | 0.767 | 0.735 | 0.702 | 0.293 | 0.284 | 0.28 | 0.917 | 0.83 | 0.902 | 0.889 | 0.84 |
| IA-LM | – | – | – | – | – | 0.905 | – | 0.923 | 1.11 | 0.546 | – | – | – | – | – | – | – | – |
| HCC-15 | 1.25 | 1.08 | 1.12 | 1.21 | 1.34 | 1.01 | 0.707 | 0.848 | 0.925 | 0.763 | 0.498 | 0.341 | 0.322 | 0.414 | 0.359 | 0.374 | 0.36 | 0.391 |
| EBC-1 | – | – | – | – | – | 0.206 | 0.233 | 0.202 | 0.181 | 0.205 | – | – | – | – | – | – | – | – |
| NCI-H520 | – | – | – | – | – | 0.877 | 0.423 | 0.772 | 0.825 | 0.748 | 0.435 | 0.463 | 0.476 | 0.896 | 0.629 | 0.569 | 0.714 | 0.756 |
| NCI-H1623 | – | – | – | – | – | – | – | – | – | – | 0.399 | 0.396 | 0.366 | – | – | – | – | – |
| SW 900 | 0.652 | 0.511 | 0.653 | 0.587 | 0.626 | – | – | – | – | – | 0.528 | 0.426 | 0.404 | 0.885 | 0.742 | 0.752 | 0.663 | 0.804 |
| NCI-H1792 | 0.76 | – | 0.657 | 0.709 | 0.661 | 1.25 | – | 0.989 | 0.985 | 0.529 | – | – | – | 0.508 | – | 0.372 | 0.585 | 0.413 |
| Calu-6 | – | – | – | – | – | 0.909 | 0.774 | 0.802 | 0.804 | 0.768 | – | – | – | – | – | – | – | – |
| A549 | – | – | – | – | – | 0.872 | 0.705 | 0.751 | 0.687 | 0.706 | – | – | – | – | – | – | – | – |
| SK-LU-1 | – | – | – | – | – | 0.991 | 0.84 | 1.03 | 0.935 | 0.716 | 0.285 | 0.328 | 0.301 | 0.463 | 0.412 | 0.501 | 0.506 | 0.309 |
| NCI-H2228 | – | – | – | – | – | 0.471 | 0.335 | 0.408 | 0.445 | 0.541 | 0.265 | 0.176 | 0.183 | 0.541 | 0.43 | 0.436 | 0.62 | 0.281 |
| NCI-H1563 | – | – | – | – | – | 0.866 | 0.849 | 0.894 | 0.873 | 0.918 | – | – | – | – | – | – | – | – |
| SK-MES-1 | – | – | – | – | – | 1.1 | 0.867 | 0.969 | 0.991 | 1.07 | 1.11 | 1.05 | 0.962 | 0.519 | 0.537 | 0.483 | 0.491 | 0.562 |
| NCI-H2009 | – | – | – | – | – | 1.05 | 0.976 | 1.02 | 1.07 | 1.04 | 0.749 | 0.57 | 0.679 | 0.283 | 0.272 | 0.247 | 0.273 | 0.254 |
| COR-L 105 | – | – | – | – | – | 0.757 | 0.794 | 0.781 | 0.768 | 0.673 | 0.337 | 0.342 | 0.435 | 0.392 | 0.491 | 0.427 | 0.434 | 0.538 |
| NCI-H1703 | 0.137 | 0.102 | 0.125 | – | 0.124 | 0.951 | 0.418 | 0.719 | 0.91 | 0.568 | – | – | – | – | – | – | – | – |
| NCI-H1650 | – | – | – | – | – | 1.02 | 0.921 | 0.973 | 1.02 | 0.732 | 0.348 | 0.404 | 0.346 | 0.6 | 0.505 | 0.514 | 0.565 | 0.447 |
| NCI-H661 | – | – | – | – | – | 1.03 | 1.22 | 1.06 | 0.773 | 1.07 | 0.333 | 0.34 | 0.361 | 0.691 | 0.503 | 0.584 | 0.586 | 0.567 |
| NCI-H2342 | 0.437 | 0.448 | 0.524 | 0.536 | 0.464 | – | – | – | – | – | 0.483 | 0.609 | 0.493 | 0.988 | 0.676 | 0.749 | 0.843 | 0.732 |
| NCI-H1648 | 0.809 | – | 0.697 | 0.643 | 0.625 | – | – | – | – | – | 0.408 | 0.293 | 0.339 | 0.482 | – | 0.47 | 0.538 | 0.404 |
| NCI-H1793 | 0.643 | – | 0.484 | 0.277 | 0.532 | – | – | – | – | – | 0.31 | 0.249 | 0.269 | 0.479 | – | 0.408 | 0.43 | 0.513 |
